The values below come from patent US20090209589A1, “N-[(PYRIDIN-2-YL) METHOXY] HETROCYCLYL CARBOXAMIDE DERIVATIVES AND RELATED COMPOUNDS AS FUNGICIDES” (Bayer Cropscience SA, priority 2006, published 2009).

Assay [1] concerns Alternaria alternata. The assay is described as follows: Cell test on Alternaria alternata. In kind it is cell-based. The note with it: under similar conditions (2 ppm, OD at 620 nm after 5 days). How it is done: The growth of Alternaria alternata is performed on PDA medium at 20° C. under black light during 14 days. The PDA medium is prepared by mixing 39 grams of PDA (Merck) in 1 liter of demineralized water.
The medium is sterilized by autoclave 15 minutes at 121° C. After 14 days of growth, the spores of Alternaria alternata are recovered in sterilized water and the concentration of spores adjusted at 10^6 spores per ml.
The compounds is solubilized in DMSO and added to sterile liquid glucose/mycopeptone medium (14.6 g/l of D-glucose, 7.1 g/l of mycological peptone (Oxoid) and 1.4 g/l of yeast extract (Merck)) at a concentration of 2 ppm. The medium is inoculated with the spore suspension at a concentration of 10^5 spores per ml.
The efficacy of the compounds is assessed by OD measurement at 620 nm after 5 days at 20° C. in comparison with a control.

In assay [2] the test system is Pyrenophora teres. The assay is described as follows: In vivo test on Pyrenophora teres (barley net blotch). The note with it: barley plants, preventive spray, dose of 330 ppm, grading 12 days after contamination. How it is done: The active ingredients tested are prepared by homogenization in a mixture of acetone/tween/DMSO, then diluted with water to obtain the desired active material concentration.
Barley plants (Express variety), sown on a 50/50 peat soil-pozzolana substrate in starter cups and grown at 12° C., are treated at the 1-leaf stage (10 cm tall) by spraying with the active ingredient prepared as described above. Plants, used as controls, are treated with the mixture of acetone/tween/DMSO/water not containing the active material.
After 24 hours, the plants are contaminated by spraying them with an aqueous suspension of Pyrenophora teres spores (12,000 spores per ml). The spores are collected from a 12-day-old culture. The contaminated barley plants are incubated for 24 hours at about 20° C. and at 100% relative humidity, and then for 12 days at 80% relative humidity.
Grading is carried out 12 days after the contamination, in comparison with the control plants.

As for `O=C(NOCc1ncc(C(F)(F)F)cc1Cl)c1c(Cl)cccc1Cl` [2,6-dichloro-N-{[3-chloro-5-(trifluoromethyl)pyridin-2-yl]methoxy}benzamide], the activity entry in assay [1] was “did not show any activity”.
Still for that read-out and setting: for `O=C(NCCc1ccccn1)c1nccc(-n2ccnc2)c1O` [3-hydroxy-4-(1H-imidazol-1-yl)-N-(2-pyridin-2-ylethyl)pyridine-2-carboxamide] the value was “did not show any activity”.
With `Cc1ccsc1C(=O)NOCc1ncc(C(F)(F)F)cc1Cl` [Compound C-1, N-{[3-chloro-5-(trifluoromethyl)pyridin-2-yl]methoxy}-3-methylthiophene-2-carboxamide], in assay [2], the protection entry is listed as “at least 70%”.
As to `O=C(NOCc1ncc(C(F)(F)F)cc1Cl)c1c(F)cccc1F` [N-{[3-chloro-5-(trifluoromethyl)pyridin-2-yl]methoxy}-2,6-difluorobenzamide], in assay [1], the activity entry is “did not show any activity”.
